Ki, Emax and inhibition data for six compounds are collected here from US6291683A, “N-arloxyethyl-alkylamines for the treatment of depression” (American Home Products Corp, priority 2000, dated 2001).

For orientation: Ki means a dissociation constant, usually derived from enzyme kinetics or from competition with a known ligand. In general, Emax refers to the greatest response seen or fitted, relative to the assay's reference.

Like-named read-outs stand apart in the source and are kept apart here.

In one assay the target is T1, serotonin transporter (Rattus norvegicus, UniProt P31652).
T1 construct: frontal cortical membranes prepared from male Sprague-Dawley rats; from tissue; host or cells: frontal cortex membranes, male Sprague-Dawley rats
T1 sequence (P31652 whole entry): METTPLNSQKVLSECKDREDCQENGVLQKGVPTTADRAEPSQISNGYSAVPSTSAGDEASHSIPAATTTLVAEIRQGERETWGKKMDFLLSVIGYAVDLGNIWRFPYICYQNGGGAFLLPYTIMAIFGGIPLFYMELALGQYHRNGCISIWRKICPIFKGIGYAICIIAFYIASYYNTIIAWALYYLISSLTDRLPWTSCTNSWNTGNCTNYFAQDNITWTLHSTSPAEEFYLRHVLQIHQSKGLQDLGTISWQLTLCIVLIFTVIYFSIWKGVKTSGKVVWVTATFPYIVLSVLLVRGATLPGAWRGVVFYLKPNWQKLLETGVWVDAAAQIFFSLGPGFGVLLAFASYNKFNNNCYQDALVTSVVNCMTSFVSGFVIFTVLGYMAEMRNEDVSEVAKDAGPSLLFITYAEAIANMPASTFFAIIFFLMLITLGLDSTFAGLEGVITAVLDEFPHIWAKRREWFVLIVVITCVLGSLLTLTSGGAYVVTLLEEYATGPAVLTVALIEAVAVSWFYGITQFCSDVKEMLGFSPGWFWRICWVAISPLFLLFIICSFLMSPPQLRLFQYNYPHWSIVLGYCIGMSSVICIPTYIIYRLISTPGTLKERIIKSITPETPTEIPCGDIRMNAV
Description: affinity for the serotonin transporter ([3H]-paroxetine binding, rat frontal cortical membranes). Also noted: species or system rat (male Sprague-Dawley). The conditions noted are these: for inhibition at 0.1 µM: @ .1 μM, read-out: ST (% Inhib. @ .1 μM).

The next assay deals with T2, 5-HT1A cloned receptor (Homo sapiens, UniProt P08908).
T2 construct: expressed in transfected cells
T2 sequence (P08908 1-422): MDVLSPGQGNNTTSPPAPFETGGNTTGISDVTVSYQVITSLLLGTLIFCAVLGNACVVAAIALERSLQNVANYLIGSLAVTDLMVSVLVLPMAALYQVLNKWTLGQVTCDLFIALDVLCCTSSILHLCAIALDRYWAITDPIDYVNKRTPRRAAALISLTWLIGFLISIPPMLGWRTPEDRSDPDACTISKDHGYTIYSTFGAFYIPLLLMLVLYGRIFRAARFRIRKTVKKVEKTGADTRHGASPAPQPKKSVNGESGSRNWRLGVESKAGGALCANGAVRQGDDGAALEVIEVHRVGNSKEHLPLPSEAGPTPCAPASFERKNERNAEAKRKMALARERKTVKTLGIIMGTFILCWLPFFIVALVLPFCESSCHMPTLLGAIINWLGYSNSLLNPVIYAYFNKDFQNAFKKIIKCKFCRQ
Description: [35S]-GTPγS binding assay, 5-HT1A cloned receptor membrane fragments. In kind it is biochemical. The conditions noted are these: maximum agonist response defined by excess 8-OH-DPAT.

For the next assay, the target named is T3, human 5-HT1A receptor (Homo sapiens, UniProt P08908).
T3 sequence (P08908 1-422): T2 sequence (P08908 1-422)
Description: 5-HT1A receptor binding ([3H]8-OH-DPAT displacement, membranes of 5-HT1A.CHO cells).

Setting [1] is: [3H]-paroxetine 0.1 nM, 60 min, 25° C.
Setting [2] is: read-out: 5-HT1A (Ki), [3H]8-OH-DPAT 1.5 nM, 30 min, room temperature, CHO cell membranes.

Description for human 5-HT1A receptor: Cells were maintained in DMEN supplemented with 10% fetal calf serum, non-essential amino acids and penicillin/ streptomycin.
Cells were grown to 95-100% confluency as a monolayer before membranes were harvested for binding studies. Cells were gently scraped from the culture plates, transferred to centrifuge tubes, and washed twice by centrifugation (2000 rpm for 10 min., 4° C.) in buffer (50 mM Tris; pH 7.5). The resulting pellets were aliquoted and placed at -80° C. On the day of assay, the cells were thawed on ice, and resuspended in buffer. Studies were conducted using [^3 H]8-OH-DPAT as the radioligand. The binding assay was performed in 96 well microtiter plates in a final total volume of 250 μL of buffer.
Description for serotonin transporter: Briefly, frontal cortical membranes prepared from male Sprague-Dawley rats were incubated with ^3 H-paroxetine (0.1 nM) for 60 min at 25° C. […] All reactions are terminated by the addition of ice cold Tris buffer followed by rapid filtration using a Tom Tech filtration device to separate bound from free ^3 H-paroxetine.

At serotonin transporter, `c1cc(OCCNCCc2c[nH]c3ccccc23)c2c(c1)OCCO2` [Example 6, [2-(2,3-Dihydrobenzo[1,4]dioxin-5-yloxy)-ethyl]-[2-(1H-indol-3-yl)-ethyl]-amine] came in with a Ki of 12 nM. This compound returned an Emax at 5-HT1A cloned receptor of 100%.
Regarding `Fc1ccc2[nH]cc(CCCNCCOc3cccc4c3CCC4)c2c1` [Example 13a, [3-(5-Fluoro-1H-indol-3-yl)-propyl]-[2-(indan-4-yloxy)-ethyl]-amine], at serotonin transporter (setting [1]), the inhibition at 0.1 µM was determined as 71%. At human 5-HT1A receptor, this compound yielded a Ki of 76.9 nM.
Consider `c1ccc(OCCNCCCc2c[nH]c3ccccc23)cc1` [Example 13d, [3-(1H-indol-3-yl)-propyl]-[2-phenoxy-ethyl]-amine], for which, on serotonin transporter (setting [1]), the inhibition at 0.1 µM amounted to 26%.
As to `Fc1ccc2[nH]cc(CCCNCCOc3ccc4c(c3)CCC4)c2c1` [Example 14], the Ki on serotonin transporter was 56 nM; at human 5-HT1A receptor, 158 nM.
Regarding `COc1ccccc1OC(C)CNCCCc1c[nH]c2ccc(F)cc12` (stereo not drawn) [Example 17, [3-(5-Fluoro-1H-indol-3-yl)-propyl]-[2-(2-methoxy-phenoxy)propyl]amine], the inhibition constant (Ki) at serotonin transporter (read-out: ST (Ki), [3H]-paroxetine 0.1 nM, 60 min, 25° C, Ki converted from IC50 (Cheng and Prusoff)) was 16 nM; at human 5-HT1A receptor (setting [2]), 14.5 nM. On 5-HT1A cloned receptor, this compound came in with an Emax of 97.5%.
For “[3-(5-Fluoro-1H-indol-3-yl)-propyl]-[2-(2-methoxy-phenoxy)-2-phenyl-ethyl]- amine [Example 16]”, the Ki is 21 nM at serotonin transporter ([3H]-paroxetine 0.1 nM, 60 min, 25° C, Ki converted from IC50 (Cheng and Prusoff), read-out: ST (Ki)); 43.9 nM at human 5-HT1A receptor (setting [2]).
